According to paper PMC12673918, “Design, Synthesis, and Selective Antiproliferative Activity of Indolizine Derivatives as Microtubule Destabilizers” (Archiv Der Pharmazie, 2025):
Read-outs that look alike come from different tables or passages of the source.

Key:
[1] = tested on: stomach carcinoma cell line (NUGC3); set-up: method as in PMID 15293996, PMID 23237054; conditions: cited from earlier work
BT‐20 (breast carcinoma) = test: Resazurin cell viability assay, BT‐20; format: cell-based; conditions: Homo sapiens, BT-20
Description: (§1) The tongue squamous cell carcinoma cell line CAL‐27 (ATCC CRL‐2095), breast carcinoma BT‐20 (ATCC HTB‐19), gastric carcinoma HGC‐27 (BCRJ Code 0310), and normal oral fibroblast OHMF (culture of fibroblasts derived from human oral healthy mucosa, approved by the Research Ethics Committee of the University of São Paulo, Campus of Ribeirão Preto, Brazil (with protocol number 049) were cultured in DMEM medium (DMEM, Sigma‐Aldrich, St. Louis, MO, USA) supplemented with 10% fetal bovine serum and a solution of penicillin (100 U/mL) and streptomycin (100 μg/mL). The cultures were maintained in a humidified incubator with 5% CO₂ at 37°C.
(§2) Cell viability was analyzed using the resazurin assay. For this, cells were seeded in 96‐well plates (1 × 10^3 cells per well) and incubated at 37°C with 5% CO₂ overnight for cell adhesion. Subsequently, the cells were treated with different compounds (0–50 µM) for 72 h. After treatment, the medium was replaced with phenol‐free DMEM medium (Sigma‐Aldrich) containing resazurin at a concentration of 44 µM (Sigma‐Aldrich). After incubation for 4 h at 37°C, fluorescence detection was performed (excitation 530/25 nm, emission 590/35 nm) using a microplate fluorimeter (Synergy 2, Biotek). Initial cell growth inhibition assays were performed in triplicate or quadruplicate, while IC50 determinations were conducted in triplicate. Data were plotted, and IC₅₀ values were determined by nonlinear regression using GraphPad Prism software 9.0.
(§3) ^a Cell viability was assessed using the resazurin assay after 72 hours of compound treatment. Fluorescence was measured to estimate % of cellular growth inhibition at 50 µM values, based on triplicate experiments.
(§4) ^b IC50 values were determined using the same resazurin-based assay, with fluorescence measurements performed after 72 hours of treatment. These experiments were carried out in triplicate.

[2] = tested on: HGC‐27 (gastric carcinoma); test: Resazurin cell viability assay, HGC‐27; format: cell-based; conditions: Homo sapiens, HGC-27
Description: as §1, §2, §3, §4

[3] = tested on: MKN‐45 (gastric carcinoma) cells; conditions: cited from earlier work
CAL‐27 (oral carcinoma) = test: Resazurin cell viability assay, CAL‐27; format: cell-based; conditions: Homo sapiens, CAL-27
Description: as §1, §2, §3, §4

[4] = tested on: BT‐20 breast cancer cells; test: Cell‐cycle assay by flow cytometry; format: cell-based; conditions: 2.5 µM, 24 h
Description: BT‐20 cells were seeded in 10 cm plates (1.5 × 10⁶ cells/plate) and incubated at 37°C with 5% CO₂ for 24 h. Subsequently, the cells were treated with different compounds at a concentration of 2.5 µM for 24 h. After treatment, the cells were collected by centrifugation and fixed in cold 70% ethanol for 1 h at 4°C. The cells were then washed, collected by centrifugation, and treated with RNase A (100 μg/mL, Sigma‐Aldrich) for 30 min at 37°C, followed by staining with propidium iodide (50 μg/mL) for 15 min at 37°C. Finally, the percentages of cells in each phase of the cell cycle were determined using FACSCalibur flow cytometry (BD Biosciences—San Jose, CA, USA). Cell‐cycle distribution was analyzed using ModFit LT V3.3 software.

tubulin [5] = test: Tubulin polymerization (inhibition) assay kit; format: biochemical; conditions: for IC50: n = 2
Description: To evaluate the effect of the compounds on tubulin polymerization, the Tubulin Polymerization Assay Kit (Cytoskeleton Inc.) was used according to the manufacturer's instructions. Briefly, 5 µL of the compounds (final concentration ranging from 0.1 to 100 µM) were pipetted per well into a pre‐warmed 96‐well black‐bottom plate at 37°C. After 1 min, 55 µL of the tubulin reaction mix (1X Buffer 1, 0.7X Tubulin Glycerol Buffer, 1 mM GTP, and 2 mg/mL tubulin) was added to each well. Next, after 5 s of shaking, fluorescence detection (excitation: 340–360 nm, emission: 410–460 nm) was performed using a microplate fluorimeter. […] Data were plotted, and IC₅₀ values were determined by nonlinear regression using GraphPad Prism software 9.0.
^c Tubulin polymerization was evaluated using a commercial assay kit, following standard procedures. Compounds were incubated with tubulin, and fluorescence was measured over time to generate kinetic curves and determine the maximum polymerization rate (Vmax). These experiments were carried out in duplicate.

[6] = tested on: OHMF (non‐tumoral oral fibroblast); test: Resazurin cell viability assay, OHMF fibroblasts; format: cell-based; conditions: Homo sapiens, 72 h, n = 3
Description: as §1, §2

GNP15 = test: Resazurin cellular growth inhibition, GNP15; format: cell-based; conditions: 72 hours, triplicate; read-out: IC50 (nM, Cellular growth inhibition) GNP15 (supplement)
Description: as §4

tubulin [7] = tested on: tubulin; set-up: method as in PMID 37895970; conditions: read-out: IC50 for tubulin destabilization (literature); cited from earlier work
[8] = 72 h, mean ± SD, n = 3, read-out: IC50 (nM) BT‐20
[9] = 72 hours, triplicate, read-out: IC50 (nM, Cellular growth inhibition) BT-20 (supplement)
[10] = 72 h, mean ± SD, n = 3, read-out: IC50 (nM) HGC‐27
[11] = 72 hours, triplicate, read-out: IC50 (nM, Cellular growth inhibition) HGC-27 (supplement)
[12] = 72 h, mean ± SD, n = 3, read-out: IC50 (nM) CAL‐27
[13] = 72 hours, triplicate, read-out: IC50 (nM, Cellular growth inhibition) CAL-27 (supplement)

Compound	IC50 (BT‐20 (breast carcinoma); [8]) [nM]	IC50 (BT‐20 (breast carcinoma); [9]) [nM]	IC50 [2, 10] [nM]	IC50 [2, 11] [nM]	IC50 (CAL‐27 (oral carcinoma); [12]) [nM]	IC50 (CAL‐27 (oral carcinoma); [13]) [nM]	IC50 (tubulin [5]) [µM]	growth inhibitory activity against NUGC3 [1]	also measured
COc1ccc2c(C(=O)c3cc(OC)c(OC)c(OC)c3)c[nH]c2c1 [BPR0L075, reference compound]	4 ± 1.1	3 ± 0.6	5 ± 1.4	45 ± 7	2 ± 0.1	48 ± 16		demonstrated growth inhibitory activity	fold improvement in antiproliferative activity over combretastatin A‐4 ([3]; MKN‐45 cells): > 10 fold
COc1ccc(/C=C\c2cc(OC)c(OC)c(OC)c2)cc1O [Combretastatin A-4, combretastatin A‐4]								no appreciable effect	
COc1ccc(N(C)c2nc(C)nc3ccccc23)cc1 [Verubulin, reference compound]	5 ± 0.7	2 ± 0.3	3 ± 0.4	5 ± 0.7	2 ± 0.3	3 ± 0.4	3.2		IC50 (tubulin [7]): 3.2 ± 0.7 µM

Further lines, with some results ahead:

IC50 (BT‐20 (breast carcinoma); [8]) [nM]	IC50 (BT‐20 (breast carcinoma); [9]) [nM]	IC50 [2, 10] [nM]	IC50 [2, 11] [nM]	IC50 (CAL‐27 (oral carcinoma); [12]) [nM]	IC50 (CAL‐27 (oral carcinoma); [13]) [nM]	IC50 (tubulin [5]) [µM]	Compound	growth inhibitory activity against NUGC3 [1]	also measured
111 ± 28	105 ± 21	475 ± 105	111 ± 28	105 ± 21	475 ± 105	14.8	COc1ccc2c(C(=O)c3cc(OC)c(OC)c(OC)c3)ccn2c1 [Compound 7f, (6‐methoxyindolizin‐1‐yl)(3,4,5‐trimethoxyphenyl)methanone]		cell‐cycle distribution [4]: significant accumulation of cells in the G2/M phase; inhibition at 50 µM (BT‐20 (breast carcinoma); 72 h, mean ± SD, n = 3, read-out: % Cellular growth inhibition (at 50 µM) BT‐20): 43 ± 0.8%; IC50 [6]: > 50000 nM; inhibition at 50 µM ([2]; 72 h, mean ± SD, n = 3, read-out: % Cellular growth inhibition (at 50 µM) HGC‐27): 43 ± 0.7%; IC50 ([3]; MKN‐45 gastric cancer cells): 0.08 µM; IC50 (GNP15): > 50000 nM; inhibition at 50 µM (CAL‐27 (oral carcinoma); 72 h, mean ± SD, n = 3, read-out: % Cellular growth inhibition (at 50 µM) CAL‐27): 58 ± 1.3%
45 ± 7	2 ± 0.1	48 ± 16	4 ± 1.1	3 ± 0.6	5 ± 1.4	8.2	CC(=O)O[C@H]1C(=O)[C@@]2(C)[C@H]([C@H](OC(=O)c3ccccc3)[C@]3(O)C[C@H](OC(=O)[C@H](O)[C@@H](NC(=O)c4ccccc4)c4ccccc4)C(C)=C1C3(C)C)[C@]1(OC(C)=O)CO[C@@H]1C[C@@H]2O [Paclitaxel, reference compound]		effect on tubulin polymerization curves (RFU) (tubulin [5]; compounds 5 µM, vs control and paclitaxel): promoted rapid and sustained polymerization; inhibition at 2 µM (BT‐20 (breast carcinoma); 2 μM, 72 h, mean ± SD, read-out: % Cellular growth inhibition BT‐20, positive control): 50 ± 1%; inhibition at 50 µM (BT‐20 (breast carcinoma); 72 hours, triplicate, read-out: % Cellular growth inhibition (at 50 µM) BT-20 (supplement)): 50 ± 1%; inhibition at 2 µM ([2]; 2 μM, 72 h, mean ± SD, read-out: % Cellular growth inhibition HGC‐27, positive control): 46 ± 1.8%; inhibition at 50 µM ([2]; 72 hours, triplicate, read-out: % Cellular growth inhibition (at 50 µM) HGC-27 (supplement)): 46 ± 1.8%; inhibition at 2 µM (CAL‐27 (oral carcinoma); 2 μM, 72 h, mean ± SD, read-out: % Cellular growth inhibition CAL‐27, positive control): 54 ± 1.2%; inhibition at 50 µM (CAL‐27 (oral carcinoma); 72 hours, triplicate, read-out: % Cellular growth inhibition (at 50 µM) CAL-27 (supplement)): 54 ± 1.2%
